Data: PMC9551036, “A selective and orally bioavailable VHL-recruiting PROTAC achieves SMARCA2 degradation in vivo” (Nature Communications, 2022)
“And” between values parts separate entries of the source, which are not always exact repeats. Equal values may be shown once. Read-outs that look alike come from different tables or passages of the source.

Key:
[1] = molecular target: T1, VCB: PROTAC: SMARCA2^BD ternary complex (Homo sapiens, UniProt P51531); assay: TR-FRET ternary complex affinity and cooperativity, SMARCA2; format: binding
T1 construct: P51531-2, residues 1373-1493 with additional N-terminal SM residues; GST (TEV site) (N); His6 (TEV site) (N, cleaved yes); made in house; host or cells: SMARCA2^BD: Escherichia coli BL21(DE3)

NCI-H1568 cells = assay: Cell viability assay (CellTiter Glo) in NCI-H1568; format: cell-based, human; conditions: for EC50: read-out: EC50 cell proliferation (CellTiter Glo); for IC50: NCI-H1568, (18h), CellTiter Glo, individual replicates, read-out: NCI-H1568 (18h) CTG
Procedure: 500–2000 cells were seeded in white, clear bottom 96-well plates (Corning or Perkin Elmer) in 180–200 µl medium per well. The next day, compounds were added using a digital dispenser and a T0 sample was measured for reference. […], and viability (luminescence) was measured using CellTiter Glo or CellTiter Glo 2.0 (Promega) according to manufacturer’s instructions after equilibrating cells and reagents at room temperature and 10–20 min incubation time while shaking.

SMARCA4 [2] = molecular target: T2, SMARCA4 (Homo sapiens, UniProt P51532); assay: SMARCA4 capillary electrophoresis protein assay in RKO cells; format: cell-based; parameters: endogenous in cells; host or cells: RKO, HCT116, LU99, HCC-364, HCT-15, HCC4006, SK-N-AS; conditions: mean ± SD; for Dmax: RKO
Procedure: 130,000–200,000 cells were seeded in 24-well plates and incubated until settled down or overnight. Compounds were dissolved in DMSO and added to cells in indicated concentrations using a digital dispenser following an optional media change. Cells were incubated for 4 or 18 h as indicated. For SMARCA2/4 half-life determination, 150,000 or 200,000 cells were seeded in 24-well plates. The next day, 50 µg/ml cycloheximide (Sigma) was added and cells were incubated for 1–24 h. For SMARCA2/4 re-synthesis measurements, 200,000 cells were seeded in 24-well plates. The next day, 100 nM compound 6 was added for 4 h to degrade SMARCA2/4, and a sample was taken as baseline for normalisation. To allow re-synthesis, a VHL binder (compound 32, 25 or 50 µM) was then added for 3 or 24 h. Medium was removed, cells were washed with PBS and lysed with 80 µl Lysis Buffer (MSD Tris Lysis Buffer (#R60TX-2) + Halt Inhibitor Cocktail (100x) + Benzonase 0.5 µL/ml). Samples were frozen at −80 °C and thawed at room temperature before use. Samples were transferred to a V-bottom plate and insoluble debris was pelleted by centrifugation for 5 min at maximum speed. The supernatant was transferred to a fresh plate. Master Mix and Ladder were prepared according to manufacturer’s instructions for 12–230 kDa Wes Separation Module, 8 × 25 capillary cartridges, Protein Simple #SM-W004 with Anti-Rabbit Detection Module for Wes, Peggy Sue or Sally Sue, Protein Simple #DM-001. 4.8 µl lysate were mixed with 1.2 µl Master Mix to achieve a protein concentration of ~0.5 µg/µl. Antibodies were diluted in Antibody Diluent II (SMARCA2 Sigma #HPA029981 RRID:AB_10602406 1:25–100, SMARCA4 Cell Signalling #49360 clone D1Q7F RRID:AB_2728743 1:15–120 or Abcam #ab110641 clone EPNCIR111A RRID:AB_10861578 1:60, GAPDH Abcam #ab9485 RRID:AB_307275 1:250). Wes plates were prepared and run according to manufacturer’s instructions. Proteins were quantified with accompanying Compass Software. SMARCA2/4 protein levels were normalised to GAPDH. […] Where applicable, curves were fitted using a 4-parametric logistic model.

SMARCA4 [3] = molecular target: T2, SMARCA4; assay: Imaging-based SMARCA4 protein assay in RKO cells; format: cell-based; parameters: endogenous in cells; host or cells: RKO, HCT116, LU99, HCC-364, HCT-15, HCC4006, SK-N-AS; conditions: individual replicates
Procedure: 1250 cells per well in 60 µl medium were plated in flat bottom, poly-lysin coated 384-well plates (CellCarrier Ultra, Perkin Elmer). The next day, test compounds (10 µl of serial dilutions) and DMSO controls were diluted in DMEM medium such that the final DMSO content was <1% or were added using an ultrasound dispensing system. 4 wells were reserved for a background measurement. […] After aspirating the fixing solution, the cells were washed once with 25 µl PBS. 25 µl of blocking buffer (10% goat serum in PBS) was added and cells were incubated for 30 min, then washed once with PBS. Cells were stained with 20 µl of SMARCA2/4 primary antibody solution (Sigma #HPA029981 RRID:AB_10602406 1:1000 or Cell Signalling #52251 clone E9O6 RRID:AB_2799410 1:1000 in PBS with 10% FCS) for 2–4 h at room temperature. Cells were again washed once with PBS. […] The cell layer was then washed once with 25 µl PBS, the wells were filled with 25 µl PBS and the plates were sealed with an adhesive sheet. They were then imaged on the Opera Phoenix (mean intensity in the nucleus). Results were computed as percent of controls ((value of test compound − background)/(value of the negative control DMSO—background) multiplied by 100). EC50 values were computed using a 4-parametric logistic model.

[4] = molecular target: VCB: PROTAC: SMARCA4^BD ternary complex (Homo sapiens, UniProt P40337+P51532); assay: TR-FRET ternary complex affinity and cooperativity, SMARCA4; format: binding; parameters: P51532, residues 1448–1569 with additional N-terminal SM residues; GST (TEV site) (N); His6 (TEV site) (N, cleaved yes); made in house; host or cells: SMARCA4^BD: Escherichia coli BL21(DE3)
[5] = TR-FRET competition for SMARCA2BD, without VCB, mean ± SD, read-out: TR-FRET SMARCA2BD EC50
[6] = binary, PROTAC alone, individual replicates, read-out: SMARCA2 BD EC50
[7] = 18h, read-out: RKO (18h) SMARCA4 DC50
[8] = PROTAC + VCB, individual replicates, read-out: Ternary SMARCA4 BD EC50 (PROTAC + VCB)
[9] = TR-FRET competition for SMARCA4BD, + VCB, mean ± SD, read-out: TR-FRET Ternary SMARCA4BD EC50 (PROTAC + VCB)
[10] = 4h, read-out: RKO (4h) SMARCA4 DC50

T2 sequence (P51532 whole entry): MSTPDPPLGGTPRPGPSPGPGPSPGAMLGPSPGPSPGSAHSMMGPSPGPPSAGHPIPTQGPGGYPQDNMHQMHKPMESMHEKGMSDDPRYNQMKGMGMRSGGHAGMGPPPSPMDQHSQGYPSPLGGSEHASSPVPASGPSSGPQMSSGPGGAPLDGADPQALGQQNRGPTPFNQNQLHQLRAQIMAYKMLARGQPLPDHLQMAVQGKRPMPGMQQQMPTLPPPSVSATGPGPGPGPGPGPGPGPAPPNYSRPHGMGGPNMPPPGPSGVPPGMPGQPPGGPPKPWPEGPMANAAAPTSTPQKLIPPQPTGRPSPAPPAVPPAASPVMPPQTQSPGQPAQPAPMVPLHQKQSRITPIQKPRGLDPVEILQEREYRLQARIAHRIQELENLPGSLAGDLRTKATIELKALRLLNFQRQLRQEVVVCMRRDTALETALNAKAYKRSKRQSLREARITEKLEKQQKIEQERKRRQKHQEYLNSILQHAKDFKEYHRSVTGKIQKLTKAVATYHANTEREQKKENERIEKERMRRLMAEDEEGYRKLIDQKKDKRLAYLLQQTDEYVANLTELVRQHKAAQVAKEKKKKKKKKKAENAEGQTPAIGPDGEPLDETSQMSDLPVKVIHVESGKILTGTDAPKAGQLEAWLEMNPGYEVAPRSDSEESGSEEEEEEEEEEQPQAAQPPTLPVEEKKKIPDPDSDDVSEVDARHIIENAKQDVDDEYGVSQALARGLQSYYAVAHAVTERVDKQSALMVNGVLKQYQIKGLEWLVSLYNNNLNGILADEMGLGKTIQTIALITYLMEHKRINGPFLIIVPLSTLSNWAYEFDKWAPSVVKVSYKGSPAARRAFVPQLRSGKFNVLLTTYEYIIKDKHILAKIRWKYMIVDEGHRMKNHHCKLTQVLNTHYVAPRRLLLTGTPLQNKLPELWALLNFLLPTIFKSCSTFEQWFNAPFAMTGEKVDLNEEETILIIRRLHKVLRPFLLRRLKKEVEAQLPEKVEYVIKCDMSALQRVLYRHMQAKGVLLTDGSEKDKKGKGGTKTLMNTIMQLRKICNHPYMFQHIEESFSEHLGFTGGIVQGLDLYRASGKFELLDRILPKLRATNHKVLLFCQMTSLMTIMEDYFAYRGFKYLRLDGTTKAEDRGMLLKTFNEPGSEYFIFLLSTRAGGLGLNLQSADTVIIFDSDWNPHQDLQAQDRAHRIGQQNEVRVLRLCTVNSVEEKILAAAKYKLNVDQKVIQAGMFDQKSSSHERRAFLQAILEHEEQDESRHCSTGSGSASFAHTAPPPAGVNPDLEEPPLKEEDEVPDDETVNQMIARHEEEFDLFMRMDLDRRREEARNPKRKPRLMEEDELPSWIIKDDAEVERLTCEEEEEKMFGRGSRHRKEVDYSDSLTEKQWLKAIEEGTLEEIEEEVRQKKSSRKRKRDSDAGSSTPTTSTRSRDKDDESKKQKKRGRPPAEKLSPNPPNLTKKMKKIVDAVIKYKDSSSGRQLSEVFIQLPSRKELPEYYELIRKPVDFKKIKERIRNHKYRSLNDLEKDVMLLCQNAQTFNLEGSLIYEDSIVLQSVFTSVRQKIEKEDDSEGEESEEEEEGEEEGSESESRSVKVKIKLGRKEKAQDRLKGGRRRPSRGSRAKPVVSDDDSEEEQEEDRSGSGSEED
T1 sequence (P51531 with tags, fused parts or gaps isoform P51531-2): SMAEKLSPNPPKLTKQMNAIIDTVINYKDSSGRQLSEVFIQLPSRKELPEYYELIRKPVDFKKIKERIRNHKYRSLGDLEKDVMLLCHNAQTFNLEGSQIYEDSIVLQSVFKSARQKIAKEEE
Chain of VCB: PROTAC: SMARCA4^BD ternary complex (P51532 1448-1569): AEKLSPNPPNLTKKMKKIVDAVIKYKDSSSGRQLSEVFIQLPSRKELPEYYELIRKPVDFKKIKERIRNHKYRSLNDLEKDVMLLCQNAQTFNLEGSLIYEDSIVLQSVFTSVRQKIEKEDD
Chain of VCB: PROTAC: SMARCA4^BD ternary complex (P40337 54-213): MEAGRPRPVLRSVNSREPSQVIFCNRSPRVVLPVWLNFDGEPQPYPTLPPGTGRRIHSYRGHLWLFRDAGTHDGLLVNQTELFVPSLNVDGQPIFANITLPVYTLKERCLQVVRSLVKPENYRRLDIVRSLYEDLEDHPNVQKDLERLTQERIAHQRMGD
Chain of VCB: PROTAC: SMARCA4^BD ternary complex (Q15369 17-112 partner): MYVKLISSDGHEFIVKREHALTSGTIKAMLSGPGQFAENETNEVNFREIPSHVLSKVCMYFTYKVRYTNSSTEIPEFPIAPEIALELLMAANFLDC
Chain of VCB: PROTAC: SMARCA4^BD ternary complex (Q15370 1-104 partner): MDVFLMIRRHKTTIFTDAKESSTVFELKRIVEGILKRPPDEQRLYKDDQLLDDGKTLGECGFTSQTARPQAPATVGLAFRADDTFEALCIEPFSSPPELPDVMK

Cc1ncsc1-c1ccc([C@H](CCCCN2CCC(c3ccc4c(c3)n(C3CCCC3)c3nc(=O)c5c(Br)cccc5n43)CC2)NC(=O)[C@@H]2C[C@@H](O)CN2C(=O)[C@@H](NC(=O)C2(F)CC2)C(C)(C)C)cc1 [compound 25]
EC50 [1, 5]: 87 ± 35 nM
EC50 [1, 6]: 179 nM and 54.5 nM and 63.5 nM and 111 nM and 66.9 nM and 57.7 nM and 73.7 nM and 97.8 nM and 88.9 nM and 103 nM and 118 nM and 101 nM and 123 nM and 55.7 nM
EC50 (NCI-H1568 cells; NCI-H1568 ([…]), mean ± SD): 7 ± 4 nM
IC50 (NCI-H1568 cells): 11.9 nM and 5.25 nM and 6.51 nM
DC50 (SMARCA4 [2]; RKO (18 h)): 40 ± 16 nM
SMARCA4 Dmax (SMARCA4 [2]; RKO (18 h)): 52 ± 21%
DC50 (SMARCA4 [3]; [7]): 31.7 nM and 60 nM and 33.5 nM
EC50 [4, 8]: 69.7 nM and 82.3 nM and 75.3 nM and 90.7 nM
EC50 [4, 9]: 79 ± 9 nM

Cc1ncsc1-c1ccc([C@H](COCCN2CCC(c3ccc4c(c3)n(C3CCCC3)c3nc(=O)c5c(Br)cccc5n43)CC2)NC(=O)[C@@H]2C[C@@H](O)CN2C(=O)[C@@H](NC(=O)C2(N(C)C)CC2)C(C)(C)C)cc1 [compound 26]
EC50 [1, 5]: 71 ± 15 nM
EC50 [1, 6]: 87 nM and 79.2 nM and 87.9 nM and 88.7 nM and 86.5 nM and 48.4 nM and 75.1 nM and 59.9 nM and 56.1 nM (2×) and 67.5 nM
EC50 (NCI-H1568 cells; Homo sapiens, NCI-H1568, […]): 33 ± 25 nM
IC50 (NCI-H1568 cells): 52.4 nM and 57.1 nM and 12.2 nM
DC50 (SMARCA4 [2]; RKO (4 h)): 81 ± 14 nM
DC50 (SMARCA4 [2]; RKO (18 h)): 83 ± 21 nM
Dmax (SMARCA4 [2]; RKO (4 h)): 61 ± 15%
Dmax (SMARCA4 [2]; RKO (18 h)): 82 ± 5%
DC50 (SMARCA4 [3]; [10]): 66.9 nM and 93.6 nM and 83.9 nM
DC50 (SMARCA4 [3]; [7]): 61.5 nM and 91.3 nM and 101 nM
EC50 [4, 9]: 56 ± 23 nM

Cc1ncsc1-c1ccc([C@H](COCCCN2CCC(c3ccc4c(c3)n(C3CCCC3)c3nc(=O)c5c(Br)cccc5n43)CC2)NC(=O)[C@@H]2C[C@@H](O)CN2C(=O)[C@@H](NC(=O)C2(F)CC2)C(C)(C)C)cc1 [compound 27]
EC50 [1, 5]: 91 ± 11 nM
EC50 [1, 6]: 98.5 nM and 107 nM and 101 nM (2×) and 91.6 nM and 79.8 nM and 86.9 nM and 77.2 nM and 83.6 nM
EC50 (NCI-H1568 cells; NCI-H1568 ([…]), mean ± SD): 13 ± 1 nM
IC50 (NCI-H1568 cells): 14.2 nM and 12 nM and 13.3 nM
DC50 (SMARCA4 [2]; RKO (4 h)): 42 ± 3 nM
SMARCA4 Dmax (SMARCA4 [2]; RKO (4 h)): 55 ± 2%
DC50 (SMARCA4 [2]; RKO (18 h)): 29 ± 6 nM
SMARCA4 Dmax (SMARCA4 [2]; RKO (18 h)): 83 ± 7%
DC50 (SMARCA4 [3]; [7]): 22.8 nM and 30.9 nM and 34.7 nM
EC50 [4, 8]: 63.8 nM and 63.4 nM and 53.1 nM and 76.7 nM and 81.7 nM and 82 nM
EC50 [4, 9]: 69 ± 12 nM

Cc1ncsc1-c1ccc([C@H](COC(C)(C)CN2CCC(c3ccc4c(c3)n(C3CCCC3)c3nc(=O)c5c(Br)cccc5n43)CC2)NC(=O)[C@@H]2C[C@@H](O)CN2C(=O)[C@@H](NC(=O)C2(F)CC2)C(C)(C)C)cc1 [compound 28]
EC50 [1, 5]: 130 ± 18 nM
EC50 [1, 6]: 132 nM and 140 nM and 145 nM and 139 nM and 134 nM and 133 nM and 154 nM and 106 nM and 96.3 nM and 137 nM
EC50 (NCI-H1568 cells; NCI-H1568 ([…]), mean ± SD): 16 ± 5 nM
IC50 (NCI-H1568 cells): 16.7 nM and 21.6 nM and 18.3 nM and 17.1 nM and 20.5 nM and 6.45 nM
DC50 (SMARCA4 [2]; RKO (4 h)): > 25000 nM
DC50 (SMARCA4 [2]; RKO (18 h)): 159 ± 57 nM
SMARCA4 Dmax (SMARCA4 [2]; RKO (18 h)): 14 ± 42%
DC50 (SMARCA4 [3]; [7]): 101 nM and 200 nM (2×) and > 833 nM
EC50 [4, 8]: 99.7 nM and 76.7 nM and 88 nM and 49.7 nM
EC50 [4, 9]: 76 ± 21 nM

Cc1ncsc1-c1ccc([C@H](CC[C@@H](C)CCN2CCC(c3ccc4c(c3)n(C3CCCC3)c3nc(=O)c5c(Br)cccc5n43)CC2)NC(=O)[C@@H]2C[C@@H](O)CN2C(=O)[C@@H](NC(=O)C2(F)CC2)C(C)(C)C)cc1 [compound 29]
EC50 [1, 5]: 201 ± 45 nM
EC50 [1, 6]: 166 nM and 269 nM and 192 nM and 189 nM
EC50 (NCI-H1568 cells; NCI-H1568 ([…]), mean ± SD): 5 ± 2 nM
IC50 (NCI-H1568 cells): 4.01 nM and 5.99 nM and 2.49 nM and 8.59 nM and 7.01 nM
DC50 (SMARCA4 [2]; RKO (4 h)): 15 ± 6 nM
SMARCA4 Dmax (SMARCA4 [2]; RKO (4 h)): 68 ± 6%
DC50 (SMARCA4 [2]; RKO (18 h)): 11 ± 3 nM
SMARCA4 Dmax (SMARCA4 [2]; RKO (18 h)): 87 ± 6%
DC50 (SMARCA4 [3]; [10]): 11.1 nM and 13.5 nM and 12.4 nM and 24.9 nM
DC50 (SMARCA4 [3]; [7]): 6.86 nM and 10.4 nM (2×) and 14.2 nM and 15.3 nM and 14 nM
EC50 [4, 8]: 49.3 nM and 72.5 nM and 61.2 nM
EC50 [4, 9]: 60 ± 12 nM
